As a reminder, the IC50 is the concentration at which inhibition is half-maximal.

For data set [1] the following is noted: cited from earlier work.
A further data set addresses T1, hTRPV3 (Homo sapiens, UniProt Q8NET8).
T1 sequence (Q8NET8 1-790): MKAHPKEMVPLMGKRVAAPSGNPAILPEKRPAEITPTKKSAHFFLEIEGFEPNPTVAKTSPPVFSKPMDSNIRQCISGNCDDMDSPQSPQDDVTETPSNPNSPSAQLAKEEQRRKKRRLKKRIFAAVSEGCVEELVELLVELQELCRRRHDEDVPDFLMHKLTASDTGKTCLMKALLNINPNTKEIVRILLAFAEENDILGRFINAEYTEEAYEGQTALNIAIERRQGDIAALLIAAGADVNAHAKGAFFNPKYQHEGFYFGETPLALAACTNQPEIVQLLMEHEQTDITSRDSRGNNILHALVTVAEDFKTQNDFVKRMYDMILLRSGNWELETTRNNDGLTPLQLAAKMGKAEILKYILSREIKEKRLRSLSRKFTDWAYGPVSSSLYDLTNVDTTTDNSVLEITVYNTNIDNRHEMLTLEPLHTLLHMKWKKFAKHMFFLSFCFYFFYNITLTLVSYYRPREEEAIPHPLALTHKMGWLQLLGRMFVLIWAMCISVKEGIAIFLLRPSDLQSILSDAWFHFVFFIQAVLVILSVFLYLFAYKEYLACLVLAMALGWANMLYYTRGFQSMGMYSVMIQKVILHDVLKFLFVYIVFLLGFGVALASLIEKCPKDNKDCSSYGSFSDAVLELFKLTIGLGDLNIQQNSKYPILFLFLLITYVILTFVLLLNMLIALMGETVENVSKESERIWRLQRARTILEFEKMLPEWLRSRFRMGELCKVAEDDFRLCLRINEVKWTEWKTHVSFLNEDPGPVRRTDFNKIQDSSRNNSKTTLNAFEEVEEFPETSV
Conditions: unit inferred; cited from earlier work.

The test system of the next data set is pain models. As to conditions: cited from earlier work.
Data set [2] relates to imiquimod-induced psoriasiform skin inflammation. The data set can be described thus: Imiquimod (Aldara) psoriasiform model. It counts as in vivo, mouse. As to conditions: topical 1% in PG/EtOH twice daily, day 8. As to the method: The treatment protocol consists of a daily topical application of Aldara (3.18 mg of imiquimod) for 7 days on the shaved back skin of Balb/c mice. Compound C was dissolved in PG/EtOH at 1% and was applied twice daily 2 h before and 6 h after Aldara treatment. Corticosteroid was dissolved in acetone (Vehicle 001) at 0.01% and applied only 2 h before Aldara treatment. Epidermis thickness is then measured at day 8 according to the protocol of FIG. 3. […] Indeed, it induces inflamed scaly skin lesions resembling psoriasis plaques. […] IMQ induced epidermal expression of IL-23, IL-17A, and IL-17F, as well as an increase in splenic Th17 cells (J Immunol. 2009 May 1; 182(9):5836-45). Mice received a daily topical dose of 63.5 mg (14 μl) of commercially available IMQ cream (5%) (Aldara; 3M Pharmaceuticals) on the shaved back skin for 7 consecutive days.

For data set [3], the system named is TRPA1 agonist-induced ear edema. The data set can be described thus: Topical PD model: AITC (TRPA1 agonist)-induced ear edema. It counts as in vivo, mouse. Conditions: topical 1% or 3% in acetone, 1 h before 6% AITC, measured during 6 hours. As to the method: Test antagonists B to D were formulated at 1% or 3% in an acetone vehicle, applied to the mouse ear skin (10 μl/ear both faces) and left for 1 hour. Then, 10 μl of a 6% solution of allyl isothiocyanate (AITC) in acetone (vehicle 001) was applied to the same location, and ear thickness was measured at TO, 30 min, 1 h, 2 h, 4 h and 6 h. A topical pharmacodynamics (PD) model was designed in mouse, in which test antagonists B to D were formulated at 1% or 3% in an acetone vehicle, applied to the ear skin and left for 1 hour. After this time, a 6% solution of allyl isothiocyanate (AITC), a TRPA1 agonist, in acetone (vehicle 001) was then applied to the same location and ear edema (via the ear thickness) was measured during 6 hours.

Another data set has as its target hTRPA1 (Homo sapiens, UniProt O75762). As to conditions: value in μM; cited from earlier work.
A further data set has as its target rTRPA1 (Rattus norvegicus, UniProt Q6RI86). As to conditions: cited from earlier work.
The next data set relates to mouse AD-patch model. The data set can be described thus: AD-patch model (DERP epicutaneous sensitization). The data set is classed as in vivo. As to conditions: topical 1% in acetone, days 44, 47 and 50; for epidermis thickness, change / inflammatory scores, change: day 51 histology; for TEWL-increase, change: measured day 51. The method, then: Female Balb/c mice were treated with Dermatophagoïdes pteronyssinus (DERP) allergen in 3 cycles of epicutaneous sensitization (patch) on abdominal skin with 2 patches applied twice weekly followed by 2 weeks of rest, during 7 weeks. Antagonists B or D were formulated at 1% in an acetone vehicle, applied to the sensitized-skin 2 hours before DERP-patches installation. Topical treatments with antagonists or a corticosteroid (used as a control) were only performed 3 times in the 3rd and last week of sensitization (at days 44, 47 and 50).
TEWL is measured the last day (Day 51) according to the protocol of FIG. 2.
On day 51, animals are sacrificed and skin is removed and fixed in formalin followed by embedment in paraffin, sectioning and staining with hematoxylin and eosin. Epidermis thickness is measured by averaging the values of measurements of five independent fields of view.
On day 51, animals are sacrificed and skin is removed and fixed in formalin followed by embedment in paraffin, sectioning and staining with hematoxylin and eosin. Inflammation score is quantified by averaging the values of 10 random fields of view per sample, scored for inflammation with a gradient (semi-quantitative scoring from 0 to 5).
At day 51, gene expression of IL4 cytokine is quantified after RNA extraction from skin, RNA retro transcription and PCR using the TaqMan® Universal MasterMix of Applied Biosystem. cDNA of mice of group Vehicle 001 are used as comparator.
At day 51, gene expression of TSLP cytokine is quantified after RNA extraction from skin, RNA retro transcription and PCR using the TaqMan® Universal MasterMix of Applied Biosystem. cDNA of mice of group Vehicle 001 are used as comparator.
AD inflammatory response was induced by epicutaneous sensitization with patches soaked with 100 μg of allergen in sterile saline (Dermatophagoïdes pteronyssinus or DERP) or with vehicle applied on abdominal skin 24 h after shaving and left on for three 1-wk periods (with patch renewal at midweek), with a 2-wk interval between applications. The presence of the patches and of a transparent occlusive dressing above, prevented licking, biting and scratching from mouse, therefore the inflammatory response in this model is not due to the scratch-itch cycle.
Antagonists B or D were formulated at 1% in an acetone vehicle, applied to the sensitized-skin 2 hours before DERP-patches installation. Topical treatments with antagonists or a corticosteroid (used as a control) were only performed 3 times in the 3rd and last week of sensitization (at days 44, 47 and 50).
At the time of the last patch removal (day 51), skin samples and blood were collected.
Skin was collected for histological, immunohistological analyses and real-time PCR after RNA extraction. Ig (IgE, and specific IgG) concentrations in serum were measured by ELISA

rTRPA1, sequence (Q6RI86 whole entry): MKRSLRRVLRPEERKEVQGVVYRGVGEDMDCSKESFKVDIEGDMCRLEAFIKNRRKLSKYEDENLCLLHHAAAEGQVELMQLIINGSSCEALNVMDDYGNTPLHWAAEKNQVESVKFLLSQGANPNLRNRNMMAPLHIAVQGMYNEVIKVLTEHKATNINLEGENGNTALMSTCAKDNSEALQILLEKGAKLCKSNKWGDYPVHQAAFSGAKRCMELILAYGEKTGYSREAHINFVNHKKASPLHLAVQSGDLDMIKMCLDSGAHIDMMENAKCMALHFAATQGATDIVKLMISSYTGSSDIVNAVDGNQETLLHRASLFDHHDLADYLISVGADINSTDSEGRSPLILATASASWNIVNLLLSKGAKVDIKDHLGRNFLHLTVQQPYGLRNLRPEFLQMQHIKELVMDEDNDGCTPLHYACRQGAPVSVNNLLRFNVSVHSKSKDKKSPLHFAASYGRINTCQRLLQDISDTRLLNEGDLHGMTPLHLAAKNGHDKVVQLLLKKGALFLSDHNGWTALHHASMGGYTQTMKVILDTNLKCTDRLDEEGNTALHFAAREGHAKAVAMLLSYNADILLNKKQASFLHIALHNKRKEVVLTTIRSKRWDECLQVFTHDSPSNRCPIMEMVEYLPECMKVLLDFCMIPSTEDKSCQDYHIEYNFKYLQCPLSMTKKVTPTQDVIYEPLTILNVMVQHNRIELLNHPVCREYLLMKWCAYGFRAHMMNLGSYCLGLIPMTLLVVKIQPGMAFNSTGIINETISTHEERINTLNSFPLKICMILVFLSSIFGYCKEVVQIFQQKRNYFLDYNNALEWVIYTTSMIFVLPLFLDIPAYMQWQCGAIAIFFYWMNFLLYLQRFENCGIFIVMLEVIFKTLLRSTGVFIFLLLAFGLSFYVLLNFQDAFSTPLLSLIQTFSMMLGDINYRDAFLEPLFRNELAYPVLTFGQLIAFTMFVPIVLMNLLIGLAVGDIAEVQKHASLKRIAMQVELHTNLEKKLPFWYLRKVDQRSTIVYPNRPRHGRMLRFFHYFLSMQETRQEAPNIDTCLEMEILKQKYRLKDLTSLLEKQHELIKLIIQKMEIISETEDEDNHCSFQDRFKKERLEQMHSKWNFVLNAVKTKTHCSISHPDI
hTRPA1, sequence (O75762 whole entry): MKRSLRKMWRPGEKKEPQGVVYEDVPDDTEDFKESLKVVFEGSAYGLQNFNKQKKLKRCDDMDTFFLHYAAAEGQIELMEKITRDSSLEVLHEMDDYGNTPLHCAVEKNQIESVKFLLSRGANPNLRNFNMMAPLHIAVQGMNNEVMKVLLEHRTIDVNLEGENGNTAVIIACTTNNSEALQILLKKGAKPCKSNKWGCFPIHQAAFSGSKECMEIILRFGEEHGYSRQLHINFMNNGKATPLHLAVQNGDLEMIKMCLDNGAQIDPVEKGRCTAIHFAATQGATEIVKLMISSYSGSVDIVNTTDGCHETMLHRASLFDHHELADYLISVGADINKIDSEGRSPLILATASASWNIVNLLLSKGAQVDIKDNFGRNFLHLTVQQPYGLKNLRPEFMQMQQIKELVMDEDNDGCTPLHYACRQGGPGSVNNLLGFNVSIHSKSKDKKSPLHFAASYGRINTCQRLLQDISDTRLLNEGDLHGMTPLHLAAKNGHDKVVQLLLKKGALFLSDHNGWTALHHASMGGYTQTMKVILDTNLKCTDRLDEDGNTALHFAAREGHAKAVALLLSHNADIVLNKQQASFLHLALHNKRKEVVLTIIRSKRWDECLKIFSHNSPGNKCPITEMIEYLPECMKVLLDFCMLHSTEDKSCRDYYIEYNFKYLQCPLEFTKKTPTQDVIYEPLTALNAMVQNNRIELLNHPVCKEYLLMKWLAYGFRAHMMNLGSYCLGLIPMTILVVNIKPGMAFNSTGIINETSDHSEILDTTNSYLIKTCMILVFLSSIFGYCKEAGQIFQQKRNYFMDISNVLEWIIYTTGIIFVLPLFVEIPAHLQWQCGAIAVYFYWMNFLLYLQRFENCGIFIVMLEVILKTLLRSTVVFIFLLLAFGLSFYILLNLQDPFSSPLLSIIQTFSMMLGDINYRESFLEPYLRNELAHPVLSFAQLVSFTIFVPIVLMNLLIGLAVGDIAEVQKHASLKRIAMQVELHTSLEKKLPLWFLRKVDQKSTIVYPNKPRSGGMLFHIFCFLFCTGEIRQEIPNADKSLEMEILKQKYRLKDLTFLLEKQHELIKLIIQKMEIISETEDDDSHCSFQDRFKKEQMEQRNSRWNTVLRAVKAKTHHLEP

For the compound `FC(F)(F)c1ccccc1-c1cc2cn[nH]c2cc1OCC1CC1` [compound C], the “oral bioavailability described in rat” value in data set [1] was “Low oral”. Besides, the IC50 on hTRPV3 was over 30 µM. Moreover, the “Efficacy described in pain model (ip)” value in the data set with pain models (ip) is given as “Efficacy”. In data set [2], the “IL-17 production by yO T cells (IL17f mRNA)” value is recorded as “did not significantly reduce” and the “imiquimod-induced epidermis thickness increase” value was “did not significantly reduce”. Moreover, in data set [3], the “TRPA1 agonist-induced ear edema (ear thickness)” value (“TRPA1 agonist-induced ear edema” below) is reported as “decreased”.
With `CCC(C)c1ccc(NC(=O)Cn2cnc3c2c(=O)n(C)c(=O)n3C)cc1` (stereo not drawn) [compound D, reference compound], the IC50 on hTRPA1 was 14 to 18 µM. In addition, the IC50 at rTRPA1 was 0.23 µM. Further, in the data set with mouse AD-patch model, the “epidermis thickness, change” value was −26%; the “inflammatory scores, change” value is −32%; the “TEWL-increase, change” value is −60%. Besides, the “Efficacy described in pain models in rat” value in the data set on pain models (rat) is reported as “Efficacy”. Besides, the “TRPA1 agonist-induced ear edema” value in data set [3] is reported as “decreased”.
For the compound `Cc1cc2[nH]ncc2cc1-c1ccccc1C(F)(F)F` [compound B], on hTRPV3, the half-maximal inhibitory concentration (IC50) was over 30 µM. Besides, in the data set with mouse AD-patch model, the “epidermis thickness, change” value was −32%; the “inflammatory scores, change” value is recorded as −27%; the “TEWL-increase, change” value is recorded as −54%. Also, the “TRPA1 agonist-induced ear edema” value in data set [3] is recorded as “decreased”.

The values above are taken from patent publication US20200390774A1, “TRPA1 ANTAGONISTS FOR USE IN THE TREATMENT OF ATOPIC DERMATITIS” (GALDERMA RESEARCH & DEVELOPMENT, priority 2016, published 2020).
